Patent publication US20100249408A1, “USE OF NOVEL COMPOUND HAVING AFFINITY FOR AMYLOID, AND PROCESS FOR PRODUCTION OF THE SAME” (NIHON MEDI-PHYSICS CO., LTD., priority 2007, published 2010)
Like-named read-outs stand apart in the source and are kept apart here. Values belong to the molecule of their own block, whether it stands above or below them.

What was measured:
[1] = Transferability into brain and clearance (Examples II-11, II-12, Comparative Example II-1); settings: rats, intravenous injection, three animals
Description: Using the Compounds 10 and 11, a time course change of radioactive accumulation in brain of male Wistar rats (7-week old) was measured.
The rats were sacrificed by bleeding from abdominal artery, and brains were removed and subjected to measurement of mass of brains and further subjected to measurement of radioactivity (hereinafter referred to as A in this Example) with a single channel analyzer (detector type: SP-20 manufactured by OHYO KOKEN KOGYO Co., Ltd.) 2, 5, 30 and 60 minutes after the injection. Also, radioactivity (hereinafter referred to as B in this Example) of the rest of the whole body was measured in the same manner as above. Using these measurement results, radioactive accumulation per unit weight of brain (% ID/g) at the respective time points were calculated in accordance with the following formula (4).
Three animals were used for experiment at the respective time points.

[2] = Partition coefficient based on the octanol extraction method (logPoctanol); settings: octanol / 10 mmol/L phosphate buffer (pH 7.4), radioactivity count
Description: 10 μL each of the prepared sample solution was respectively added to 2 mL of octanol, further, 2 mL of 10 mmol/L phosphate buffer (pH 7.4) was added, and stirred for 30 seconds. […] Using the obtained radioactivity count, log Poctanol was calculated in accordance with the equation (2).

[3] = biological target: T1, intracerebral amyloid (aggregated Aβ1-42 injected into amygdaloid nucleus) (Homo sapiens, UniProt P05067); test: ex vivo autoradiogram using rats of amyloid injected model (Examples II-13, II-14); design: species or system male Wistar rat; settings: rat with Aβ1-42 amyloid suspension in one amygdaloid nucleus, tail vein, brain removed 60 minutes after injection
T1 construct: Aβ1-42 (manufactured by Peptide Institute) was dissolved in phosphate buffer (pH 7.4); purchased Peptide Institute
T1 sequence (P05067 672-713): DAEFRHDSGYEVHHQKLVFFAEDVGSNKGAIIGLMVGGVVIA
Description: As a control, 2.5 μL of a phosphate buffered physiological saline solution (pH 7.4) was injected into an amygdaloid nucleus on the other side of the rat. The rats were examined 1 day after the injection of the amyloid suspension and the phosphate buffered physiological saline solution (pH 7.4).
(4) Brain was removed 60 minutes after the injection to prepare a brain slice of 10 μm in thickness with a microtome (type: CM3050S, manufactured by LEICA).

[4] = International Publication No. WO03/106439; cited from earlier work
[5] = [125I]-labeled compounds, normal mice; cited from earlier work
[6] = [11C]-labeled, rats; cited from earlier work

SMILES: Oc1ccc(-c2cn3cc([123I])ncc3n2)cc1 [Compound 10, [^123I]-2-(4′-hydroxyphenyl)-6-iodoimidazo[1,2-a]pyrazine]
Radioactive accumulation in brain per unit weight ([1]; after 2 min.): 0.62 % ID/g
Radioactive accumulation in brain per unit weight ([1]; after 5 min.): 0.33 % ID/g
Radioactive accumulation in brain per unit weight ([1]; after 30 min.): 0.08 % ID/g
Radioactive accumulation in brain per unit weight ([1]; after 60 min.): 0.02 % ID/g
logPoctanol value [2]: 2.3
Accumulation of radioactivity at intracerebral amyloid (ex vivo autoradiogram) [3]: a marked accumulation of radioactivity was observed in the amygdaloid nucleus on the side to which the amyloid suspension was injected

Radioactive accumulation in brain per unit weight ([1]; after 2 min.): 0.65 % ID/g
Radioactive accumulation in brain per unit weight ([1]; after 5 min.): 0.43 % ID/g
Radioactive accumulation in brain per unit weight ([1]; after 30 min.): 0.09 % ID/g
Radioactive accumulation in brain per unit weight ([1]; after 60 min.): 0.03 % ID/g
logPoctanol value [2]: 3.0
SMILES: Oc1ccc(-c2cn3cccc([123I])c3n2)cc1 [Compound 11, [^123I]-2-(4′-hydroxyphenyl)-8-iodoimidazo[1,2-a]pyridine]
Accumulation of radioactivity at intracerebral amyloid (ex vivo autoradiogram) [3]: a marked accumulation of radioactivity was observed in the amygdaloid nucleus on the side to which the amyloid suspension was injected

SMILES: CC(=C(C#N)C#N)c1ccc2cc(N(C)CCF)ccc2c1 [FDDNP, 2-(1-{6-[(2-fluoroethyl)(methyl)amino]-2-naphthyl}ethylidene)malononitrile]
Result in reverse mutation test [4]: positive

SMILES: CN(C)c1ccc(-c2nc3ccc(I)cc3o2)cc1 [IBOX, 6-iodo-2-[4′-(N,N-dimethylamino)phenyl]benzoxazole]
Clearance from normal tissues [5]: insufficient in clearance from normal tissues

SMILES: CN(C)c1ccc(-c2cn3cc(I)ccc3n2)cc1 [IMPY, 6-iodo-2-[4′-(N,N-dimethylamino)phenyl]imidazo[1,2-a]pyridine]
Result in reverse mutation test [4]: positive

SMILES: CNc1ccc(/C=C/c2ccc(O)cc2)cc1 [SB-13, (E)-4-methylamino-4′-hydroxystilbene]
Clearance from normal tissues [6]: it cannot be said that the clearance is sufficiently fast

SMILES: CN(C)c1ccc(-c2nc3ccc(I)cc3s2)cc1 [TZDM, 6-iodo-2-[4′-(N,N-dimethylamino)phenyl]benzothiazole]
Clearance from normal tissues [5]: insufficient in clearance from normal tissues

SMILES: CN(C)c1ccc(/C=C/c2ccc(I)cc2)cc1 [m-I-SB, (E)-4-dimethylamino-4′-iodostilbene]
Clearance from normal tissues [5]: insufficient in clearance from normal tissues
